Results on four compounds are retold here after ChEMBL document CHEMBL1127943, “Morpholine-based substance P antagonists: assessment of the 3-point binding model” (Bioorg Med Chem Lett, 1994).

The structures appear in SMILES notation.

The target of the test is Substance-P receptor (Homo sapiens, UniProt P25103). As to the kind of experiment: Binding affinity towards human Tachykinin receptor 1 by the displacement of [125I]- Substance P in CHO Cells. In general terms: In a radioligand displacement assay an active substance lowers the binding of a labelled ligand.
Sequence of Substance-P receptor (P25103 whole entry): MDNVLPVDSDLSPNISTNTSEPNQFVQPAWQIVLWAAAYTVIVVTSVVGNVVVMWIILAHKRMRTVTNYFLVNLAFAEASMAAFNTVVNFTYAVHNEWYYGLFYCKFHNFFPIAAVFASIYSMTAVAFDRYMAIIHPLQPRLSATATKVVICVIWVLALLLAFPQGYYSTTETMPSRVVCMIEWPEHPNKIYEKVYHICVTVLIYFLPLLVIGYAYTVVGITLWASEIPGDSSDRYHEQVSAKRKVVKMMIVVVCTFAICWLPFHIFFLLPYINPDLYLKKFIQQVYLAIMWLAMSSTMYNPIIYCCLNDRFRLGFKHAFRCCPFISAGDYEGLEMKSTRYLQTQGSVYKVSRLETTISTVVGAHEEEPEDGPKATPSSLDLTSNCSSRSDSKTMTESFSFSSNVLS

For `FC(F)(F)c1cc(CC[C@@H]2OCCN[C@@H]2c2ccccc2)cc(C(F)(F)F)c1`, the IC50 – broadly, the concentration at which inhibition is half-maximal – is 1.53 µM.
To `O=C1CO[C@@H](/C=C/c2cc(C(F)(F)F)cc(C(F)(F)F)c2)[C@@H](c2ccccc2)N1` belongs 2.53 µM; to `FC(F)(F)c1cc(C2OC2[C@@H]2OCCN[C@@H]2c2ccccc2)cc(C(F)(F)F)c1` (some centres undefined), 0.087 µM; to `FC(F)(F)c1cc(CC[C@H]2OCCN[C@@H]2c2ccccc2)cc(C(F)(F)F)c1`, 1.13 µM.
